pIC50: −log10 of the molar value.

For this assay, the target named is N-terminal active peptide segment (MI-N899) of POLQ with ATPase activity (Homo sapiens (Human), UniProt O75417). Briefly: POLQ enzyme activity inhibition experiment (ATPase, NADH-coupled, OD 340 nm). Type of assay: biochemical. The conditions noted are these: 100 nM POLQ (N), 100 μM ATP, 300 nM dT50. How it is done: The Envision microplate reader from Perkin Elmer Inc was used to measure the reduction of OD value of NADH at 340 nm, thus reflecting the enzyme activity. Experimental method: The POLQ enzyme was diluted to 100 nM with a reaction buffer (20 mM Tris HCl (pH 7.80), 80 mM KCl, 10 mM MgCl2, 1 mM DTT, 0.01% w/v bovine serum albumin, 0.01% v/v Tween-20, and 5% v/v glycerol). The compounds to be tested were diluted to different concentrations in dimethyl sulfoxide (DMSO) using the Echo 650 pipetting system, and transferred to a 384-well plate, 20 μL/well of 100 nM POLQ was added, and the mixture was incubated at room temperature for 15 minutes. A reaction mixture solution was formulated, and the concentration of each component in the reaction mixture solution was: 100 μM ATP, 300 nM […], 300 μM NADH, 6 mM PEP, 10 U/mL lactate dehydrogenase and 20 U/mL pyruvate kinase. 20 μL/well of reaction mixture solution was added to start the enzyme reaction. […] The concentration range was from 10 μM to 0.0005 μM, and the final concentration of DMSO in the system was 0.2% v/v. The 384-well plate was reacted at room temperature for 20 minutes, and then the OD value at 340 nm was read with an Envision microplate reader. The inhibition rate was calculated, and XLfit software was used to perform fitting to obtain IC50 of the compounds. In the experiment, a blank group and a DMSO group were set up, respectively.
Sequence of N-terminal active peptide segment (MI-N899) of POLQ with ATPase activity (O75417 1-899 limits assumed): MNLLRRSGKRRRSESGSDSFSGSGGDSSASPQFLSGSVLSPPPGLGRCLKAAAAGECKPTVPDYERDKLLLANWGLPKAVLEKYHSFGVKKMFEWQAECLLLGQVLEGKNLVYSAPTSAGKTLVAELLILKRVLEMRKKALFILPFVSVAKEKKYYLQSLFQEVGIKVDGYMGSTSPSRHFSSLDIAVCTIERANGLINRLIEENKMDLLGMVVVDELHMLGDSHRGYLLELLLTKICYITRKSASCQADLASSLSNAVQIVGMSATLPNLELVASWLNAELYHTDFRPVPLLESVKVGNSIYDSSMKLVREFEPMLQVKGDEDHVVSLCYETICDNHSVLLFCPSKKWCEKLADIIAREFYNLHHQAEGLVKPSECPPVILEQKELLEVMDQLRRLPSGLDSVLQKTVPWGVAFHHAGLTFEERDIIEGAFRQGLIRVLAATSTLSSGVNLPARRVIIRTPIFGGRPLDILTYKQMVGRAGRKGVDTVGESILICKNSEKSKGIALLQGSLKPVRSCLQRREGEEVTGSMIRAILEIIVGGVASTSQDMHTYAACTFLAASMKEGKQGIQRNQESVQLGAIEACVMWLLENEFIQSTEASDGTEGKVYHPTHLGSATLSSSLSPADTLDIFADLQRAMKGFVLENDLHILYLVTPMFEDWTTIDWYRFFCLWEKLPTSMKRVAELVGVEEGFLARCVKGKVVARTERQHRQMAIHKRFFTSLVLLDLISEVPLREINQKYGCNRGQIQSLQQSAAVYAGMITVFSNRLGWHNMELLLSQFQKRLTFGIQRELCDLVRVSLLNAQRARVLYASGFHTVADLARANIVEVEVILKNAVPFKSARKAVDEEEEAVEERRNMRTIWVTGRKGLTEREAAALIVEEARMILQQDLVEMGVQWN
For `COc1cnc(C)cc1-c1cc(C)ncc1C(=O)Nc1nc2ncc(-c3ccc(C#N)cc3F)nc2s1` [Compound 70, N-(6-(4-cyano-2-fluorophenyl)thiazolo[4,5-b]pyrazin-2-yl)-5′-methoxy-2′,6-dimethyl-[4,4′-bipyridine]-3-carboxamide], the pIC50 (usually the negative decadic logarithm of the IC50, by convention in mol/L) was greater than 7.00.

Consider `COc1cnccc1-c1cc(C)ncc1C(=O)Nc1nc2ncc(-c3ccc(C#N)cc3)nc2s1` [Compound 45, N-(6-(4-cyanophenyl)thiazolo[4,5-b]pyrazin-2-yl)-3′-methoxy-6-methyl-[4,4′-bipyridine]-3-carboxamide], for which the pIC50 was greater than 7.00.

The compound `C#Cc1cc(F)ccc1-c1cc(C)ncc1C(=O)Nc1nc2ncc(-c3ccc(C#N)cc3)nc2s1` [Compound 47, N-(6-(4-cyanophenyl)thiazolo[4,5-b]pyrazin-2-yl)-4-(2-ethynyl-4-fluorophenyl)-6-methylpyridine-3-carboxamide] gave a negative logarithm of the IC50 (pIC50) greater than 7.00.

Regarding `COc1cccc(F)c1-c1cc(C#N)ncc1C(=O)Nc1nc2ncc(-c3ccc(Cl)cc3)nc2s1` [Compound 17, N-(6-(4-chlorophenyl)thiazolo[4,5-b]pyrazin-2-yl)-6-cyano-4-(2-fluoro-6-methoxyphenyl)nicotinamide], the pIC50 is greater than 7.00.

As for `COc1ccc(-c2cnc3nc(NC(=O)c4ccncc4-c4ccccc4OC)sc3n2)cc1` [Compound 7, 3-(2-methoxyphenyl)-N-(6-(4-methoxyphenyl)thiazolo[4,5-b]pyrazin-2-yl)pyridine-4-carboxamide], the negative-log IC50 (pIC50) was greater than 7.00.

In the case of `COc1cnc(C)cc1-c1cc(C)ncc1C(=O)Nc1nc2ncc(-c3ccc(Cl)cc3)nc2s1` [Compound 67, N-(6-(4-chlorophenyl)thiazolo[4,5-b]pyrazin-2-yl)-5′-methoxy-2′,6-dimethyl-[4,4′-bipyridine]-3-carboxamide], the negative-log IC50 (pIC50) is greater than 7.00.

`COc1ccccc1-c1ncccc1C(=O)Nc1nc2ncc(-c3ccc(C#N)cc3)nc2s1` [Compound 50, N-(6-(4-cyanophenyl)thiazolo[4,5-b]pyrazin-2-yl)-2-(2-methoxyphenyl)pyridine-3-carboxamide] showed a negative logarithm of the IC50 (pIC50) greater than 7.00.

For `COc1ccccc1-c1cnccc1C(=O)Nc1nc2ncc(-c3ccc(C#N)nc3)nc2s1` [Compound 11, N-(6-(6-cyanopyridin-3-yl)thiazolo[4,5-b]pyrazin-2-yl)-3-(2-methoxyphenyl)isonicotinamide], the negative logarithm of the IC50 (pIC50) is greater than 7.00.

As to `Cc1cc(-c2cc(Cl)ccc2OC(F)(F)F)c(C(=O)Nc2nc3ncc(-c4ccc(C#N)cc4)nc3s2)cn1` [Compound 90, 4-(5-chloro-2-(trifluoromethoxy)phenyl)-N-(6-(4-cyanophenyl)thiazolo[4,5-b]pyrazin-2-yl)-6-methylpyridine-3-carboxamide], the pIC50 is greater than 7.00.

With `C#Cc1ccccc1-c1nc(C)ncc1C(=O)Nc1nc2ncc(-c3ccc(C#N)cc3)nc2s1` [Compound 59, N-(6-(4-cyanophenyl)thiazolo[4,5-b]pyrazin-2-yl)-4-(2-ethynylphenyl)-2-methylpyrimidine-5-carboxamide], the pIC50 is greater than 7.00.

For the compound `COc1ccccc1-c1cc(C(F)(F)F)ncc1C(=O)Nc1nc2ncc(-c3ccc(C#N)cc3)nc2s1` [Compound 36, N-(6-(4-cyanophenyl)thiazolo[4,5-b]pyrazin-2-yl)-4-(2-methoxyphenyl)-6-(trifluoromethyl)pyridine-3-carboxamide], the negative logarithm of the IC50 (pIC50) was greater than 7.00.

With `Cc1cc(-c2cc(Cl)ccc2OC(F)F)c(C(=O)Nc2nc3ncc(-c4ccc(C#N)cc4)nc3s2)cn1` [Compound 89, 4-(5-chloro-2-(difluoromethoxy)phenyl)-N-(6-(4-cyanophenyl)thiazolo[4,5-b]pyrazin-2-yl)-6-methylpyridine-3-carboxamide], the negative-log IC50 (pIC50) was greater than 7.00.

With `COc1ccccc1-c1cnccc1C(=O)Nc1nc2ncc(-c3cccc(Cl)c3)nc2s1` [Compound 5, N-(6-(3-chlorophenyl)thiazolo[4,5-b]pyrazin-2-yl)-3-(2-methoxyphenyl)pyridine-4-carboxamide], the pIC50 is greater than 7.00.
